Consider 6 compounds from patent US20100297262A1, “[…] ACTIVE COMPOSITIONS COMPRISING OXIDATIVE STRESS MODULATORS (OSM), NEW CHEMICAL […], COMPOSITIONS AND USES” (COLBY PHARMACEUTICAL COMPANY, priority 2009, published 2010).

Where two headings read alike, the source gives them in different places.

In one data set the test system is acetyl histone H4. The data set is described as follows: Western blot analysis of acetylated histones. A general note: Immunoblotting shows a protein as a band on a membrane.
Data set [1] concerns PC-3 cells. The data set is described as follows: Cellular ROS as ratio DCF fluorescence:DNA fluorescence. Particulars: 20 μM Vitamin E (non-toxic dose).
Data set [2] deals with LNCaP cells. The data set is described as follows: Cellular ROS as ratio DCF fluorescence:DNA fluorescence, Example 12.
Description: Fluorescence of oxidized DCF dye is proportional to the total cellular ROS. When DCF fluorescence is normalized with the DNA fluorescence from the same well of the 96-well plate, the ratio DCF fluorescence:DNA fluorescence is proportional to the ROS generated per cell.
Data set [3] deals with LNCaP cells. The data set is described as follows: DNA (Hoechst 33258) fluorescence cell growth assay, Example 12. The format is cell-based, human. Particulars: for cell growth (DNA fluorescence) with logarithmic increase in SAHA concentration: SAHA 0-10 μM.
The subject of another data set is HDAC. From the text: The HDAC activity is expressed as a ratio of HDAC product fluorescence/DNA fluorescence in relative fluorescence unit (FU).
In data set [4] the test system is superoxide dismutase (SOD). The data set is described as follows: SOD assay. The format is cell-based, human. Particulars: pretreated with 0.05 nM or 1 nM R1881 prior to 10 μM SAHA.
The next data set relates to all cell lines. The data set is described as follows: DNA fluorescence cell growth assay, cell lines taken together. In kind it is cell-based, human.
The conditions of data set [5]: patients, oral SAHA 400 mg qd, cited from earlier work.
Data set [6] has as its system recurrent glioblastoma multiforme. Particulars: compared to 4-4.4 months in earlier studies; cited from earlier work.
In data set [7] the test system is advanced non-small-cell lung cancer (NSCLC). Particulars: survival improvements not significant at P=0.05; cited from earlier work.
Data set [8] concerns latently HIV infected T-Cells. The following applies: cited from earlier work.
For data set [9], the system named is PC-3 cells. The data set is described as follows: DNA fluorescence cell growth assay. The following applies: SAHA below 10 μM.
The test system of a further data set is HT-29. The data set is described as follows: DNA fluorescence cell growth assay. Particulars: Vitamin E pretreated.
The next data set concerns MDA-MB231. The data set is described as follows: DNA fluorescence cell growth assay. Particulars: Vitamin E pretreated.
A further data set relates to A549. The data set is described as follows: DNA fluorescence cell growth assay. The following applies: any concentration of SAHA.
In a further data set the test system is NCI-H460. The data set is described as follows: DNA fluorescence cell growth assay. Particulars: any concentration of SAHA.
In data set [10] the test system is LNCaP cells. The data set is described as follows: LC-MS estimation of intracellular SAHA concentration. The following applies: Vitamin E pretreated cells, first 24 hours.
Protocol: Ten μL of each extract was used for LC-MS analysis, and the assay was repeated three times.
The solvent gradient and the flow rates were adjusted appropriately. A 5 minute post-run column wash at 10% solvent A, 90% solvent B was maintained at 0.2 ml/min. The column thermostat was maintained at 25° C. for the complete run.
The Mass detector for the mass detection was carried out with Agilent 1100 quadruple moment bench-top mass spectrometer with electrospray ionization in the positive ion mode at 3000 V. For both the single ion MS and scanning MS/MS mode, the desolvation temperature was 340° C. with the drying gas flow rate of 12 l/min at a nebular pressure of 40 psig. […] All data were collected, stored and analyzed using Agilent software for data collection, peak detection and integration.
The test system of another data set is siSSAT clone. The data set is described as follows: ROS production in siSSAT clone. The format is cell-based, human. Particulars: R1881 treatment.
Data set [11] has as its system LNCaP cells transfected with the control vector containing scrambled sequence. The data set is described as follows: ROS production in vector control cells. In kind it is cell-based, human. Particulars: R1881 treatment.
The subject of data set [12] is LNCaP cells. Particulars: cited from earlier work.
Data set [13] is described as follows: Distribution and clearance of alkylTPP compounds (i.v., feeding tritiated compounds, drinking water). The following applies: mice.
A further data set has as its system DU-145. The data set is described as follows: Growth of human prostate tumor cells in culture, PMCol. In kind it is cell-based. As for the experimental part: (§1) Pharmacokinetic (PK) studies of PMCol in mice administered 100 mg/kg PMCol p.o. or 5 mg/kg of PMCol i.v., using Liquid Chromatography-Mass Spectroscopic (LC-MS) analyses.
(§2) Mito-PMCol analogs and PMCol were compared for their relative cytostatic/anti-proliferative and cytotoxic and therapeutic activities in tumor cell systems as measured by clonogenic assays and direct live and dead cell counts are performed in a hemacytometer by trypan blue dye exclusion assay or by DNA fluorescence assays following routine published procedures established in our labs.

Another data set relates to LAPC4. The data set is described as above. In kind it is cell-based. As for the experimental part:
as §1, §2

The next data set relates to LNCaP. The description is as above. In kind it is cell-based. How it is done: as §1, §2
Data set [14] deals with spontaneous TRAMP mouse tumors. The data set is described as follows: TRansgenic Adenocarcinoma of Mouse Prostate (TRAMP) model. In kind it is in vivo. As for the experimental part: The inhibitory effect of PMCol on prostate tumor growth is tested in the well characterized […] Adenocarcinoma of Mouse Prostate (TRAMP) model. […] Tumor development in PMCol treated animals was delayed by over 8 weeks as compared to the control animals.

The nature of data set [15]: in vivo. As for the experimental part:
as §1

Data set [16] can be described thus: in vivo. The following applies: mouse. How it is done:
(§3) In order to test the efficacy of PMCol-C2 or Mito-PMCol-C10 in inhibiting growth of prostate tumors in vivo, the PMCol drug formulation was standardized, the route of its administration was determined and determination of the maximum tolerated dose (MTD), when administered orally or by i.v. injection.

The conditions of data set [17]: rat, in vivo, po. As for the experimental part: as §3
Data set [18] is classed as physicochemical. Particulars: pH 2.
The mark [19] stands for this setting: agent alone: 20 μM Vitamin E, 1 nM R1881 or 2 μM SAHA.

As a reminder, the half-life is the time in which the quantity being followed falls by half.

Consider `Cc1c(C)c2c(c(C)c1OC(=O)CCC(=O)O)CC[C@@](C)(CCC[C@H](C)CCC[C@H](C)CCCC(C)C)O2` [Vitamin E, αTocopherol succinate], for which the “acetyl histone H4 level” value with acetyl histone H4 (Vitamin E + R1881 + SAHA) is listed as “almost completely restores”. Also, the “acetyl-histone H4 level” value in the data set on acetyl histone H4 (setting [19]) was “little effect on the acetyl-histone H4 level”. In addition, the ROS levels entry in the data set on PC-3 cells [1] was “markedly reduces the ROS levels”; with LNCaP cells [2] (20 μM Vitamin E (non-toxic dose), LNCaP treated and untreated with R1881), “markedly reduces the ROS levels”.

Regarding `O=C(CCCCCCC(=O)Nc1ccccc1)NO` [SAHA, Suberoylanilide hydroxamic acid], the “cell growth (DNA fluorescence) with logarithmic increase in SAHA concentration” value in the data set with LNCaP cells [3] (no R1881) and in the data set with LNCaP cells [3] (pretreated with 0.05 nM R1881) was “inhibited almost linearly” in each case. Besides, the “cell growth (DNA fluorescence)” value in the data set on LNCaP cells [3] (normal androgen level (1 nM R1881), even at 10 μM SAHA) is given as “little effect on cell growth”; with LNCaP cells [3] (pretreated with 2 nM R1881, all SAHA concentrations tested), “negligible effect on cell growth”. In addition, the “HDAC activity with increasing concentrations of SAHA” value with HDAC (R1881 untreated vector control cells, androgen-treated and untreated siSSAT cells) is listed as “decreases in a similar fashion”; in the data set on HDAC (vector control cells pretreated with 1 nM R1881), “increases after an initial decrease”. For the same compound, the “SOD activity of LNCaP cells” value in data set [4] is on record as “no significant difference in the SOD activity”. Moreover, the “nature of the increase in SAHA sensitivity (formalism of Chou and Talalay)” value with all cell lines (Vitamin E pretreatment followed by SAHA) is listed as “synergistic”. Besides, the “activity at clinically achievable serum level (~1.3 μM)” value with all cell lines (cell lines untreated with Vitamin E or another similar anti-oxidant) was “inactive”. Also, the “sensitivity to SAHA at a concentration much below the clinically achievable serum level” value in the data set on all cell lines (prostate, breast and colon cancer cells pretreated with anti-oxidants such as Vitamin E) is reported as “highly sensitive”. For the same compound, the “serum SAHA level” value was roughly 349 ng/mL in data set [5] and roughly 1.3 µM in [5] (clinically achievable). Besides, the median overall survival in [6] is 5.7 months. The response and survival result in data set [7] is “improved response rates and increased median progression free survival and overall survival”. Also, the “effects against latently HIV infected T-Cells” value in [8] is “both in vitro and in vivo effects”. For the same compound, the “resistance of PC-3 cells to SAHA” value in the data set on PC-3 cells [9] is “intrinsically resistant”. Moreover, the “SAHA sensitivity compared to Vitamin E untreated cells” value with HT-29 and with MDA-MB231 was “higher in Vitamin E pretreated cells” each time. For the same compound, the “change of SAHA sensitivity after Vitamin E pretreatment” value in the data set on A549 and with NCI-H460 was “do not show any appreciable increase in SAHA sensitivity” throughout. Besides, the “acetyl-histone H4 level” value with acetyl histone H4 (1 nM R1881 pretreated cells + 2 μM SAHA) is recorded as “marked decrease”; in the data set with acetyl histone H4 (setting [19]), “small, but significant increase”. The “intracellular SAHA level” value in the data set on LNCaP cells [10] is on record as “no significant decrease”. Further, the results for the “cellular ROS (DCF/DNA fluorescence) with increase in SAHA concentration” value in the data set on LNCaP cells [2] (no R1881), with LNCaP cells [2] (pretreated with 0.05 nM R1881) and with LNCaP cells [2] (pretreated with 2 nM R1881) were “ROS increases”, “negligible effect on total cellular ROS levels” and “negligible effect on total cellular ROS levels”, respectively.

For `C[C@]1(O)CC[C@H]2[C@@H]3CCC4=CC(=O)CCC4=C3C=C[C@@]21C` [R1881], the “effect on LNCaP cell growth” value is “growth stimulatory” in the data set on LNCaP cells [3] (0.05 nM R1881) and “growth inhibitory effect” in the data set with LNCaP cells [3] (1 nM or above). The ROS production result with siSSAT clone is “no significant effect on ROS production”; in data set [11] it was “marked increase”. Also, the “cellular ROS (DCF dye oxidation) compared to 1-10 nM” value in the data set on LNCaP cells [12] (R1881 concentrations less than 0.1 nM, Ripple et al. 1997) is “significantly lower cellular ROS”. The “cellular ROS (DCFH-DA dye oxidation) compared to 1 nM to 10 nM” value in the data set with LNCaP cells [12] (metribolone concentrations less than 1 nM, Ripple et al 1997) was “significantly lower cellular ROS”. For the same compound, the “acetyl-histone H4 level” value in the data set on acetyl histone H4 (setting [19]) is recorded as “little effect on the acetyl-histone H4 level”.

Take `CC1(C)CC(OCCCCC[P+](c2ccccc2)(c2ccccc2)c2ccccc2)CC(C)(C)N1[O].[Br-]` [Mito-Tempol]: the “redistribution once in the bloodstream” value in [13] was “rapidly redistribute into organs”.

Take `Cc1c(C)c2c(c(C)c1O)CCC(C)(C)O2` [PMCol, 2,2,5,7,8-pentamethyl-6-chromanol]: in the data set with DU-145, the “growth of androgen-independent DU-145 cells in culture” value was “inhibits the growth”. Also, the “growth of androgen-dependent LAPC4 cells in culture” value with LAPC4 is “inhibits the growth”. The “growth of androgen-dependent LNCaP cells in culture” value in the data set on LNCaP was “inhibits the growth”. In addition, the “delay of tumor development as compared to the control animals” value in data set [14] (TRAMP model, PMCol treated animals) is “over 8 weeks”. Further, the “growth of spontaneous TRAMP mouse tumors” value in data set [14] (mouse, in vivo) was “inhibits the growth”. For the same compound, the oxidized metabolite entry in the data set “in vivo [15]” (mouse, in vivo) is reported as “ring-opened PMQ”. Moreover, the “bioavailability in blood serum” value stood at 0.5 mg/kg in “in vivo [15]” (mouse, in vivo, iv) and 4 mg/kg in “in vivo [15]” (mouse, in vivo, po). Moreover, the half-life in “in vivo [15]” (mouse, in vivo, iv) was 2 h; in the data set “in vivo [15]” (mouse, in vivo, po) it was 0.5 h. The “time after injection within which serum levels went down quickly” value in “in vivo [15]” (mouse, in vivo, iv, 5 mg/kg) is no more than 2 h. In “in vivo [15]” (mouse, in vivo, po), the in vivo metabolism entry is “oxidized in vivo to the hydroxylated-PMCol”. Further, the “time after administration within which serum levels went down quickly” value in “in vivo [15]” (mouse, in vivo, po, 100 mg/kg) was no more than 15 min. In addition, in “in vivo [16]”, the safety of administration result is given as “safely administered”. For the same compound, the MTD in “in vivo [16]” (iv) came out at 7.5 mg/kg; in the data set “in vivo [16]” (po) it was 100 mg/kg. This compound also returned a DLT in data set [17] of 2 grams/kilogram/day. Besides, in [18], the acid stability entry is recorded as “lability”.

For the compound `CC1=C(C)C(=O)C(CCC(C)(C)O)=C(C)C1=O` [PMQ, 2-(3-hydroxy-3-methylbutyl)-3,5,6-trimethyl-1,4-benzo-quinone], in “in vivo [15]” (mice, oral PMCol, last time point of PK studies), the “time the metabolite remained in the serum” value is reported as “at least 24 hours”. In addition, the “appearance of the LC-MS peak in serum after oral administration of PMCol” value in the data set “in vivo [15]” (mouse, in vivo, po) is “appears in serum within minutes”.
